ChEMBL document CHEMBL3875166, “Synthesis and biological evaluation of new 6-hydroxypyridazinone benzisoxazoles: Potential multi-receptor-targeting atypical antipsychotics” (Eur J Med Chem, 2016)

Experiments:
D(2) dopamine receptor = D(2) dopamine receptor (Rattus norvegicus, UniProt P61169); assay: Displacement of [3H]spiperone from dopamine D2 receptor in Sprague-Dawley rat striatum incubated for 30 mins by liquid scintillation counting analysis
[1] = biological target: T1, 5-hydroxytryptamine receptor 1A (Rattus norvegicus, UniProt P19327); assay: Displacement of [3H]8-OH-DPAT from 5-HT1A receptor in Sprague-Dawley rat cerebral cortex incubated for 30 mins by liquid scintillation counting analysis
T1 sequence (P19327 whole entry): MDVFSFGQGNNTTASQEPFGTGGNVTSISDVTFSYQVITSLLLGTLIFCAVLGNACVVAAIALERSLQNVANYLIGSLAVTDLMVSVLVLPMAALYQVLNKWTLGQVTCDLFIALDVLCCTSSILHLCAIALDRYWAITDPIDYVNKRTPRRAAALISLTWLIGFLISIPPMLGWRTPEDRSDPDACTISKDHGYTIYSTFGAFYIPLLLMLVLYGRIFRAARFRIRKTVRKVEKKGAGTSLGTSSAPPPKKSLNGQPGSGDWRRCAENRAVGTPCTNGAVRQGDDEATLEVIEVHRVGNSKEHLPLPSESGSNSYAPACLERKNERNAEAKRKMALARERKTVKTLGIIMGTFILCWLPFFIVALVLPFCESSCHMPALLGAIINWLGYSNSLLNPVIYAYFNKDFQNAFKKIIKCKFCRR

[2] = biological target: 5-hydroxytryptamine receptor 2A (Rattus norvegicus, UniProt P14842); assay: Displacement of [3H] ketanserin from 5-HT2A receptor in Sprague-Dawley rat cerebral cortex incubated for 30 mins by liquid scintillation counting analysis
5-hydroxytryptamine receptor 2A, sequence (P14842 whole entry): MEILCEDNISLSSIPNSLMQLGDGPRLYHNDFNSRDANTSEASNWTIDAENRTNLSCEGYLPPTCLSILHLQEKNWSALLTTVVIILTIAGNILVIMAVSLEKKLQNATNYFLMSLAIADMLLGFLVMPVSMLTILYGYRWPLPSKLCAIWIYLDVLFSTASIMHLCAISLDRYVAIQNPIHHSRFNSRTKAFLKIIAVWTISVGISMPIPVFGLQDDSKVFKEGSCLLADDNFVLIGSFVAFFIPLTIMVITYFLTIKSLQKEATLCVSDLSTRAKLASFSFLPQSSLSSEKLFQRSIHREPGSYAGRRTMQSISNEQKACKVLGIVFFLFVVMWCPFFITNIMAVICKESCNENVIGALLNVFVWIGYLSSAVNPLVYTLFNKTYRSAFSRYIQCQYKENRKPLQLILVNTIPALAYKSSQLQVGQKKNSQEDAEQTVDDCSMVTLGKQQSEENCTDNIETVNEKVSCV

D(2) dopamine receptor, sequence (P61169 whole entry): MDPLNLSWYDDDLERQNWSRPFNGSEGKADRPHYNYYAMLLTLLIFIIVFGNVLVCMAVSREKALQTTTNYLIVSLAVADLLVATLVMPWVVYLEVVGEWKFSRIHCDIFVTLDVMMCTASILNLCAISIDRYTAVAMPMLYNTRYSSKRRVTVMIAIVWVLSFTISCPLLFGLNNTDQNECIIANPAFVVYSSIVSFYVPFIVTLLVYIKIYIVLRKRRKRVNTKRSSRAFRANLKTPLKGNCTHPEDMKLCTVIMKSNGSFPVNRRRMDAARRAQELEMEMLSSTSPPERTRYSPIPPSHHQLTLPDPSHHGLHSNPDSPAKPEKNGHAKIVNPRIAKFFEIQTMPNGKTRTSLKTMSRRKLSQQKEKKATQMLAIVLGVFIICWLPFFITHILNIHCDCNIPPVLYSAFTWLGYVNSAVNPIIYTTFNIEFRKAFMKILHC

Compound | Ki (D(2) dopamine receptor) | Ki [1] | Ki [2]
Cc1c(OCCCN2CCC(c3noc4cc(F)ccc34)CC2)nn(-c2ccc(Cl)c(Cl)c2)c(=O)c1C | 0.0383 µM | 0.121 µM | 0.0913 µM
O=c1ccc(OCCCN2CCN(c3ccccn3)CC2)nn1-c1ccc(Cl)c(Cl)c1 | > 10 µM | 0.157 µM | 0.143 µM
Cc1cccc(N2CCN(CCCOc3ccc(=O)n(-c4ccc(Cl)c(Cl)c4)n3)CC2)c1C | > 10 µM | 5.53 µM | 0.0812 µM
O=c1ccc(OCCCN2CCN(c3ccc(F)cc3)CC2)nn1-c1ccc(Cl)c(Cl)c1 | 0.953 µM | 0.0554 µM | 0.0645 µM
O=c1ccc(OCCCCCN2CCC(c3noc4cc(F)ccc34)CC2)nn1-c1ccc(Cl)c(Cl)c1 | 0.0403 µM | 0.326 µM | 0.0253 µM
COc1ccccc1N1CCN(CCCOc2ccc(=O)n(-c3ccc(Cl)c(Cl)c3)n2)CC1 | 0.524 µM | 0.0562 µM | 0.242 µM
O=c1c2ccccc2c(OCCCN2CCC(c3noc4cc(F)ccc34)CC2)nn1-c1ccc(Cl)c(Cl)c1 | 0.0437 µM | 0.333 µM | 0.0839 µM
O=c1ccc(OCCCN2CCN(c3ncccn3)CC2)nn1-c1ccc(Cl)c(Cl)c1 | 0.914 µM | 0.167 µM | 1.14 µM
O=c1c2c(c(OCCCN3CCC(c4noc5cc(F)ccc45)CC3)nn1-c1ccc(Cl)c(Cl)c1)CCCC2 | 0.0418 µM | 0.224 µM | 0.0896 µM
O=c1ccc(OCCCN2CCN(c3ccccc3F)CC2)nn1-c1ccc(Cl)c(Cl)c1 | 1.2 µM | 0.0565 µM | 0.0695 µM
O=c1ccc(OCCCN2CCN(c3csc4ccccc34)CC2)nn1-c1ccc(Cl)c(Cl)c1 | 0.648 µM | 0.984 µM | 0.0812 µM
O=c1ccc(OCCCN2CCN(Cc3ccccc3)CC2)nn1-c1ccc(Cl)c(Cl)c1 | > 10 µM | 0.213 µM | 0.595 µM
COc1ccc(N2CCN(CCCOc3ccc(=O)n(-c4ccc(Cl)c(Cl)c4)n3)CC2)cc1 | 0.845 µM | 0.0573 µM | 0.543 µM
NC(=O)c1ccc2occ(N3CCN(CCCOc4ccc(=O)n(-c5ccc(Cl)c(Cl)c5)n4)CC3)c2c1 | 0.379 µM | 0.0648 µM | 0.605 µM
O=c1ccc(OCCCN2CCN(c3ccccc3Cl)CC2)nn1-c1ccc(Cl)c(Cl)c1 | 0.808 µM | 1.11 µM | 0.12 µM
O=C(c1ccc(F)cc1)C1CCN(CCCOc2ccc(=O)n(-c3ccc(Cl)c(Cl)c3)n2)CC1 | 0.179 µM |  | 0.0138 µM
O=c1ccc(OCCCN2CCN(c3nsc4ccccc34)CC2)nn1-c1ccc(Cl)c(Cl)c1 | 0.595 µM | 0.898 µM | 0.0751 µM
O=c1ccc(OCCCN2CCC(c3c[nH]c4ccccc34)CC2)nn1-c1ccc(Cl)c(Cl)c1 | 0.499 µM | 1.25 µM | 0.0745 µM
O=c1ccc(OCCCN2CCC(c3nc4ccccc4s3)CC2)nn1-c1ccc(Cl)c(Cl)c1 | > 10 µM | > 10 µM | 0.107 µM
O=c1ccc(OCCCN2CCN(c3ccccc3)CC2)nn1-c1ccc(Cl)c(Cl)c1 | 1.32 µM | 0.0481 µM | 0.359 µM
O=c1ccc(OCCCN2CCN(c3cccc(C(F)(F)F)c3)CC2)nn1-c1ccc(Cl)c(Cl)c1 | 0.916 µM | 0.103 µM | 0.0992 µM
O=c1ccc(OCCCN2CCN(c3cccc(Cl)c3Cl)CC2)nn1-c1ccc(Cl)c(Cl)c1 | 0.777 µM | 0.624 µM | 0.627 µM

Further lines, results first:

Ki (D(2) dopamine receptor) | Ki [1] | Ki [2] | Compound
0.0281 µM | 0.089 µM | 0.0123 µM | O=c1ccc(OCCCN2CCC(c3noc4cc(F)ccc34)CC2)nn1-c1ccc(Cl)cc1
0.0453 µM | 0.089 µM | 0.0123 µM | O=c1ccc(OCCCN2CCC(c3noc4cc(F)ccc34)CC2)nn1-c1ccc(F)c(Cl)c1
0.0331 µM | 0.0342 µM | 0.0554 µM | Cc1ccc(-n2nc(OCCCN3CCC(c4noc5cc(F)ccc45)CC3)ccc2=O)cc1
0.0385 µM | 0.0435 µM | 0.0032 µM | O=c1ccc(OCCCN2CCC(c3noc4cc(F)ccc34)CC2)nn1-c1ccc(F)c(F)c1
0.0381 µM | 0.129 µM | 0.0093 µM | O=c1ccc(OCCCN2CCC(c3noc4cc(F)ccc34)CC2)nn1-c1cc(Cl)cc(Cl)c1
0.0455 µM | 0.0613 µM | 0.131 µM | O=c1ccc(OCCCN2CCC(c3noc4cc(F)ccc34)CC2)nn1-c1ccccc1
0.0267 µM | 0.117 µM | 0.0347 µM | O=c1ccc(OCCCCN2CCC(c3noc4cc(F)ccc34)CC2)nn1-c1ccc(Cl)c(Cl)c1
0.0162 µM | 0.0159 µM | 0.0213 µM | O=c1ccc(OCCCN2CCC(c3noc4cc(F)ccc34)CC2)nn1-c1ccc2ccccc2c1
0.0411 µM | 0.183 µM | 0.006 µM | O=c1ccc(OCCCN2CCC(c3noc4cc(F)ccc34)CC2)nn1-c1cccc(Cl)c1
0.0385 µM | 0.078 µM | 0.0103 µM | O=c1ccc(OCCCN2CCC(c3noc4cc(F)ccc34)CC2)nn1-c1ccccc1Cl
0.174 µM | 0.0884 µM | 0.0005 µM | O=c1ccc(OCCCN2CCC(c3noc4cc(F)ccc34)CC2)nn1-c1ccc(F)cc1F
0.0108 µM | 0.0528 µM | 0.0259 µM | O=c1ccc(OCCCN2CCC(c3noc4cc(F)ccc34)CC2)nn1-c1ccc(F)cc1
0.0078 µM | 0.025 µM | 0.0217 µM | O=c1ccc(OCCCN2CCC(c3noc4cc(F)ccc34)CC2)nn1-c1ccc(Cl)c(Cl)c1
0.0354 µM | 0.0381 µM | 0.0023 µM | O=c1ccc(OCCCN2CCC(c3noc4cc(F)ccc34)CC2)nn1-c1cc(F)cc(F)c1
0.0004 µM | 0.191 µM | 0.0004 µM | O=c1ccc(OCCCN2CCC(c3noc4cc(F)ccc34)CC2)nn1-c1ccc(Cl)cc1Cl
